# Measurements from PubChem BioAssay AID330 (DTP/NCI, 2004).
# Where “and” joins values, the source holds several entries; their conditions need not be identical. Equal entries are not always repeated. Toxic doses and inconclusive results are not listed.
# Tested on: P388 leukemia ip, CD2F1 mice, survival T/C
# Experiment: NCI In Vivo Anticancer Drug Screen. Data for tumor model P388 Leukemia (intraperitoneal) in CD2F1 (CDF1) mice
# Settings: endpoint: median survival time, higher = longer survival
# Summary of the method: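 Mice carrying the transplanted tumor received test compound or vehicle. Survival was recorded in each group, and the value is the treated-group measurement divided by that of the vehicle-treated control group.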
# [1] = dose: 50.0 mg/kg/injection, schedule: Q01DX009 (ip), vehicle: saline
# [2] = dose: 100.0 mg/kg/injection, schedule: Q01DX009 (ip), vehicle: saline
# [3] = dose: 200.0 mg/kg/injection, schedule: Q01DX009 (ip), vehicle: saline
# [4] = dose: 50.0 mg/kg/injection, schedule: Q01DX009 (ip), vehicle: Klucel (hydroxypropylcellulose) (HPC)
# [5] = dose: 100.0 mg/kg/injection, schedule: Q01DX009 (ip), vehicle: Klucel (hydroxypropylcellulose) (HPC)
# [6] = dose: 200.0 mg/kg/injection, schedule: Q01DX009 (ip), vehicle: Klucel (hydroxypropylcellulose) (HPC)
# [7] = dose: 50.0 mg/kg/injection, schedule: Q01DX005 (ip), vehicle: saline
# [8] = dose: 100.0 mg/kg/injection, schedule: Q01DX005 (ip), vehicle: saline
# [9] = dose: 200.0 mg/kg/injection, schedule: Q01DX005 (ip), vehicle: saline
# [10] = dose: 50.0 mg/kg/injection, schedule: Q01DX005 (ip), vehicle: Klucel (hydroxypropylcellulose) (HPC)
# [11] = dose: 100.0 mg/kg/injection, schedule: Q01DX005 (ip), vehicle: Klucel (hydroxypropylcellulose) (HPC)
# [12] = dose: 200.0 mg/kg/injection, schedule: Q01DX005 (ip), vehicle: Klucel (hydroxypropylcellulose) (HPC)
# [13] = dose: 50.0 mg/kg/injection, schedule: Q01DX005 (ip), vehicle: saline with Tween-80
# [14] = dose: 100.0 mg/kg/injection, schedule: Q01DX005 (ip), vehicle: saline with Tween-80
# [15] = dose: 200.0 mg/kg/injection, schedule: Q01DX005 (ip), vehicle: saline with Tween-80
# [16] = dose: 100.0 mg/kg/injection, schedule: Q01DX009 (ip), vehicle: saline with Tween-80
# [17] = dose: 200.0 mg/kg/injection, schedule: Q01DX009 (ip), vehicle: saline with Tween-80
# [18] = dose: 50.0 mg/kg/injection, schedule: Q01DX009 (ip), vehicle: saline with Tween-80
smiles,measurement,setting,value
CC(C)=CCC1=C(C)C(=O)C(C)=C(C)C1=O,T/C,"dose: 12.5 mg/kg/injection, schedule: Q01DX009 (ip), vehicle: distilled water + Tween-80 + alcohol",100 % of control
same,T/C,"dose: 25.0 mg/kg/injection, schedule: Q01DX009 (ip), vehicle: distilled water + Tween-80 + alcohol",98 % of control
same,T/C,"dose: 50.0 mg/kg/injection, schedule: Q01DX009 (ip), vehicle: distilled water + Tween-80 + alcohol",100 % of control
same,T/C,"dose: 100.0 mg/kg/injection, schedule: Q01DX009 (ip), vehicle: distilled water + Tween-80 + alcohol",98 % of control
same,T/C,"dose: 200.0 mg/kg/injection, schedule: Q01DX009 (ip), vehicle: distilled water + Tween-80 + alcohol",86 % of control
O=C1CCC2CCc3ccccc3N12 (centres undefined),T/C,"dose: 100.0 mg/kg/injection, schedule: Q04DX002 (ip), vehicle: other",102 % of control
same,T/C,"dose: 200.0 mg/kg/injection, schedule: Q04DX002 (ip), vehicle: other",96 % of control
same,T/C,"dose: 400.0 mg/kg/injection, schedule: Q04DX002 (ip), vehicle: other",103 % of control
CC1(C)CC(O)C2OC2(C)C1 (centres undefined),T/C,[1],94 % of control
same,T/C,[2],89 % of control
same,T/C,[3],101 % of control
Cc1ncn[nH]1,T/C,[2],103 % of control
same,T/C,[3],106 % of control
same,T/C,"dose: 400.0 mg/kg/injection, schedule: Q01DX009 (ip), vehicle: saline",100 % of control
Cn1cc(NC(=O)c2cc(NC(=O)c3cc(NC=O)cn3C)cn2C)cc1C(=O)NCCC(=N)N,T/C,"dose: 15.0 mg/kg/injection, schedule: Q01DX005 (ip), vehicle: water",100 % of control
same,T/C,"dose: 30.0 mg/kg/injection, schedule: Q01DX005 (ip), vehicle: water",101 % of control
same,T/C,"dose: 60.0 mg/kg/injection, schedule: Q01DX005 (ip), vehicle: water",96 % of control
same,T/C,"dose: 120.0 mg/kg/injection, schedule: Q01DX005 (ip), vehicle: water",104 % of control
Cc1nn(C(=O)c2ccncc2)c(C)c1N=Nc1cccc2ccccc12,T/C,[4],96 % of control
same,T/C,[5],99 % of control
same,T/C,[6],96 % of control
CCCNC(c1ccc(N(CC)CC)cc1)C(Cl)(Cl)Cl (centres undefined),T/C,[7],103 % of control
same,T/C,[8],106 % of control
same,T/C,[9],96 % of control
Cn1cnc([N+](=O)[O-])c1Sc1n[nH]c(N)n1,T/C,[10],111 % of control
same,T/C,[11],117 % of control
same,T/C,[12],108 % of control
CC(=O)C(C(=O)Nc1cccc2ccccc12)C(C)=NCCN=C(C)C(C(C)=O)C(=O)Nc1cccc2ccccc12.[Cu] (centres undefined),T/C,[13],94 % of control
same,T/C,[14],96 % of control
same,T/C,[15],96 % of control
COc1nc2ccccc2nc1OC,T/C,[16],97 % of control
same,T/C,[17],100 % of control
same,T/C,"dose: 400.0 mg/kg/injection, schedule: Q01DX009 (ip), vehicle: saline with Tween-80",97 % of control
O=C(OCc1ccccc1)N1C[C@@H](Br)[C@H](Br)[C@H]1Cc1ccccc1,T/C,"dose: 100.0 mg/kg/injection, schedule: Q01DX001 (ip), vehicle: distilled water + alcohol",95 % of control
same,T/C,"dose: 200.0 mg/kg/injection, schedule: Q01DX001 (ip), vehicle: distilled water + alcohol",100 % of control
c1ccc(-c2nn[nH]n2)cc1,T/C,"dose: 25.0 mg/kg/injection, schedule: Q01DX009 (ip), vehicle: Klucel (hydroxypropylcellulose) (HPC)",100 % of control
same,T/C,[4],100 % of control
same,T/C,[5],118 % of control
same,T/C,[6],100 % of control
CC1OC(OC2CC(O)(C(=O)CO)Cc3c(O)c4c(c(O)c32)C(=O)c2ccccc2C4=O)CC(N)C1O (centres undefined),T/C,"dose: 0.05 mg/kg/injection, schedule: Q01DX009 (ip), vehicle: water",159 % of control
same,T/C,"dose: 0.1 mg/kg/injection, schedule: Q01DX009 (ip), vehicle: water",185 % of control and 216 % of control
same,T/C,"dose: 0.2 mg/kg/injection, schedule: Q01DX009 (ip), vehicle: water",221 % of control and 261 % of control
same,T/C,"dose: 0.21 mg/kg/injection, schedule: Q04DX003 (ip), vehicle: water",172 % of control
same,T/C,"dose: 0.25 mg/kg/injection, schedule: Q04DX003 (ip), vehicle: water",101 % of control and 122 % of control
same,T/C,"dose: 0.36 mg/kg/injection, schedule: Q04DX003 (ip), vehicle: water",209 % of control
same,T/C,"dose: 0.39 mg/kg/injection, schedule: Q01DX009 (ip), vehicle: water",115 % of control
same,T/C,"dose: 0.4 mg/kg/injection, schedule: Q01DX009 (ip), vehicle: water",115 % of control
same,T/C,"dose: 0.5 mg/kg/injection, schedule: Q04DX003 (ip), vehicle: water",157 % of control
same,T/C,"dose: 0.6 mg/kg/injection, schedule: Q04DX003 (ip), vehicle: water",239 % of control
same,T/C,"dose: 0.78 mg/kg/injection, schedule: Q01DX009 (ip), vehicle: water",86 % of control
same,T/C,"dose: 1.0 mg/kg/injection, schedule: Q04DX003 (ip), vehicle: water",167 % of control and 183 % of control
same,T/C,"dose: 1.3 mg/kg/injection, schedule: Q01DX001 (ip), vehicle: water",216 % of control
same,T/C,"dose: 2.4 mg/kg/injection, schedule: Q01DX001 (ip), vehicle: water",104 % of control
same,T/C,"dose: 3.2 mg/kg/injection, schedule: Q01DX001 (ip), vehicle: water",97 % of control
same,T/C,"dose: 4.0 mg/kg/injection, schedule: Q04DX003 (ip), vehicle: water",104 % of control
N#CC1SC(C#N)C(c2ccc(Cl)cc2)OC1c1ccc(Cl)cc1 (centres undefined),T/C,"dose: 6.25 mg/kg/injection, schedule: Q01DX005 (ip), vehicle: saline with Tween-80",93 % of control
same,T/C,"dose: 12.5 mg/kg/injection, schedule: Q01DX005 (ip), vehicle: saline with Tween-80",91 % of control
same,T/C,"dose: 25.0 mg/kg/injection, schedule: Q01DX005 (ip), vehicle: saline with Tween-80",90 % of control
same,T/C,[14],91 % of control
same,T/C,[15],104 % of control
C/C(N=NC(=S)N1CCC(C)CC1)=C1\C=CC=CN1O,T/C,[13],103 % of control
same,T/C,[14],103 % of control
same,T/C,[15],108 % of control
O=C(CC1=NCCN1)c1ccccc1,T/C,[4],100 % of control
same,T/C,[5],102 % of control
same,T/C,[6],108 % of control
O=C(O)CCCCOc1ccc(N(CCCl)CCCl)cc1,T/C,"dose: 100.0 mg/kg/injection, schedule: Q01DX001 (ip), vehicle: Klucel (hydroxypropylcellulose) (HPC)",123 % of control
CCCCN=C(N)N/N=C(\C)c1ccc2c(c1)Cc1ccccc1-2,T/C,"dose: 25.0 mg/kg/injection, schedule: Q04DX002 (ip), vehicle: saline with Tween-80",104 % of control
CC1=C2CCC3(C)C(=C2OC1=O)C(C)=C(Cl)C(Cl)C3Cl (centres undefined),T/C,[10],113 % of control
same,T/C,[11],119 % of control
same,T/C,[12],115 % of control
COc1cc[n+](CCc2c[nH]c3ccccc23)cc1,T/C,"dose: 12.5 mg/kg/injection, schedule: Q01DX009 (ip), vehicle: saline with Tween-80",109 % of control
same,T/C,"dose: 25.0 mg/kg/injection, schedule: Q01DX009 (ip), vehicle: saline with Tween-80",104 % of control
same,T/C,[18],113 % of control
CCOC(CNN)OCC,T/C,[2],106 % of control
same,T/C,[3],91 % of control
O=C(O)c1ccc2c(=O)c(C(=O)O)c[nH]c2c1,T/C,[1],100 % of control
same,T/C,[2],96 % of control
same,T/C,[3],103 % of control
Cn1ccoc1=NC1CCCCC1,T/C,[18],110 % of control
same,T/C,[16],100 % of control
same,T/C,[17],100 % of control
COc1cc2c(cc1OC)C13CCN4C(=O)C(=O)C(CC41)C1C(OCC(=O)O)CC(=O)N2C13 (centres undefined),T/C,"dose: 60.0 mg/kg/injection, schedule: Q01DX005 (ip), vehicle: saline",101 % of control
same,T/C,"dose: 120.0 mg/kg/injection, schedule: Q01DX005 (ip), vehicle: saline",101 % of control
same,T/C,"dose: 240.0 mg/kg/injection, schedule: Q01DX005 (ip), vehicle: saline",100 % of control
Cn1ncc2c(NCCc3ccccc3)ncnc21,T/C,"dose: 100.0 mg/kg/injection, schedule: Q04DX003 (ip), vehicle: saline with Tween-80",109 % of control
N#CC1=C(O)/C(=C\c2ccc(Cl)c(Cl)c2)N=C1N,T/C,[13],89 % of control
same,T/C,[14],90 % of control
same,T/C,[15],97 % of control
CCCCCCCCCCCCCCCC[N+](C)(CCO)Cc1ccccc1 (centres undefined),T/C,"dose: 6.25 mg/kg/injection, schedule: Q04DX002 (ip), vehicle: saline with Tween-80",112 % of control
same,T/C,"dose: 12.5 mg/kg/injection, schedule: Q04DX002 (ip), vehicle: saline with Tween-80",116 % of control
CCCCCCCCCCC1OCN2CCCCC12 (centres undefined),T/C,[7],108 % of control
same,T/C,[8],104 % of control
same,T/C,[9],118 % of control
